In PMC10285648, “iTAG an optimized IMiD-induced degron for targeted protein degradation in human and murine cells” (iScience, 2023):

What was measured:
[1] = tested on: Flag-HA-DCD23-RBM39, Flag-HA-DCD23-SMS; assay: Quantitative TMT proteomics of CT26 expressing iTAG-tagged RBM39 or SMS; format: cell-based, mouse; conditions: CT26, 10uM, 8h
Method: The protein lysates were probed for EGFP using western blotting. […] EGFP signal was then measured using flow cytometry. (3 independent experiments, normalized to the control and represented as mean ± SD). […] Data are plotted as Log2 fold change relative to DMSO versus Log10 of p value.
We then tested the degradation of RBM39 (nuclear) and SMS (cytoplasmic) N-terminally tagged with iTAG (DCD23) in CT26 and AT3 ([…]) (Figures 5C–5E).
Samples for quantitative proteomics were prepared using the SimPLIT workflow.[60] […] Samples were bath sonicated for 5 min, incubated at RT for 45 min and protein concentration was measured with the Bradford Protein Assay (Biorad) according to manufacturer instructions. […]
LC-MS analysis was performed on the Dionex Ultimate 3000 UHPLC system coupled with the Orbitrap Lumos mass spectrometer (Thermo Scientific). Samples were analyzed with the EASY-Spray C18 capillary column (75 μm × 50 cm, 2 μm) at 50°C. […] MS3 quantification was obtained with higher-energy collisional dissociation (HCD) fragmentation of the top 5 most abundant CID fragments isolated with synchronous precursor selection (SPS). […]
The SEQUEST-HT search engine was used to analyze the acquired mass spectra in Proteome Discoverer 2.4 (Thermo Scientific) for protein identification and quantification. […]

cMYC-EGFP-DCD19 = assay: Flow cytometry of EGFP signal, cMYC-EGFP-DCD19 in HMEC; format: cell-based, human; conditions: 10uM, 4h
Excerpt: To systematically delineate the optimal DCD/degrader combination for targeted protein degradation, we undertook a matrix approach evaluating all 23 DCD tags against 6 small molecule degraders. […] To control for any potential off-target effects of the IMiD/CeLMOD agents that could indirectly affect the target of interest, we designed controls in which the specific DCD and the EGFP sequences were interspaced by a P2A ribosomal “skipping” sequence,[32] leading to separate translation of the DCD and the target protein (Figure 1A). These constructs were then inserted into a doxycycline-inducible lentiviral vector system and stably expressed in hTERT immortalized human mammary epithelial cells (HMEC), a suitable model to assess the functional consequences of cMYC degradation. cMYC was tagged at the C-terminus end for the initial screening experiments.
Figure 1 Design and experimental evaluation of the DCD tags (A) Representation of the experimental pipeline used to evaluate the different DCD constructs. […] Median EGFP intensity was measured in each condition using flow cytometry (3 independent experiments, normalized to the control and represented as mean ± SD). […] The protein lysates were probed for cMYC levels using western blotting. […] Target loss was evaluated either by measuring EGFP median intensity using flow cytometry or western blotting for cMYC protein (3 independent experiments, normalized to the control and represented as mean ± SD). […] Target loss was evaluated as in (D) (3 independent experiments, normalized to the control and represented as mean ± SD). […] Protein lysates were collected and probed for cMYC and p21 using western blotting. […] Protein lysates were collected and probed for cMYC and p21 using western blotting. […] These were left out as controls with no test substance.
Following degrader treatment cells were collected and DAPI was added to the cell suspension at 1 μg/mL to allow the exclusion of dead cells. EGFP signal was measured using BD LSR II flow cytometer (BD Biosciences). FlowJo 10 Software (FlowJo) was used for data processing.

FLuc-EGFP-DCD23 = assay: In vitro luciferase and EGFP signal in MDA-MB-231 (FLuc-EGFP-DCD23); format: cell-based, human; conditions: MDA-MB-231, in vitro

O=C1CC[C@H](N2Cc3c(OCc4ccc(CN5CCOCC5)cc4)cccc3C2=O)C(=O)N1 [CC220, Iberdomide]
degradation of iTAG (DCD23) tagged RBM39 and SMS [1]: robust degradation | off-targets in proteome [1]: without any detected off-targets | loss of cMYC-EGFP signal (cMYC-EGFP-DCD19): robust loss of cMYC-EGFP signal | lowest concentration giving decrease in luciferase and EGFP signal (FLuc-EGFP-DCD23): ≤ 0.05 µM | time to decrease in luciferase and EGFP signal (FLuc-EGFP-DCD23): ≤ 3 h
